# Experiments:
# [1] = test system: Plasmodium berghei ANKA (PbA); experiment: Parasitemia by thin-blood smear; format: in vivo; details: C57Bl/6 mice, 10 mg/kg artesunate Day 5 sc (Example 4)
# Text: (§1) Cryopreserved Plasmodium berghei ANKA (PbA; MR4, Manassas, Va.) was passaged through naïve C57Bl/6 mice. For the experiment, infection was initiated in C57Bl/6 and BALB/c mice by intraperitoneal (ip) injection of 1×10^6 freshly-isolated parasitized erythrocytes (PE) obtained from donor passage mice. Parasitemia was monitored by thin-blood smear stained with modified Geimsa stain (Protocol Hema3 Stain Set, Sigma, Oakville, ON) by counting at least 1500 erythrocytes. The infected mice were monitored for survival, neurological impairment, vascular leakage, parasite burden, and levels of angiogenic factors and markers of endothelial activation.
# [2] = test system: Plasmodium berghei ANKA (PbA)-induced experimental cerebral malaria; experiment: Survival of mice infected with PbA (Kaplan Meier, log rank test); format: in vivo; details: C57Bl/6 mice, 10 mg/kg artesunate Day 5 sc, alone (Example 4)
# Text: as §1
# Post-infection survival of mice was plotted as Kaplan Meier curves using a log rank test for comparison. Quantitative assessment of ECM-associated neurological impairment (impaired coordination and motor performance) was performed daily using the 10 parameter Rapid Murine Coma and Behavioral Score (RMCBS), as previously described by Carroll R W, et al. 2010 in PLoS ONE 5: e13124. […] Total scores for each mouse were calculated and provided as a percentage of the total possible score. […]
# Statistical analysis was performed using GraphPad Prism version 4.00 (San Diego, Calif.). Post-infection survival of mice was plotted as Kaplan Meier curves and assessed using log-rank test. […]
smiles,measurement,setting,value
"C[C@H]1[C@H](OC(=O)CCC(=O)O)O[C@@H]2O[C@@]3(C)CC[C@H]4[C@H](C)CC[C@@H]1[C@@]24OO3 [artesunate, reference compound]",parasitemia (parasite burden diminished to pre-ECM levels),[1],< 2%
same,survival by Day 8 post infection,[2],less than 60%
same,treated mice that died of ECM,[2],41.7%

# Source: patent publication US10525106B2, “Angiopoietin-based interventions for treating cerebral malaria” (Regeneron Pharmaceuticals, Inc., priority 2013, dated 2020)
